Assays:
Assay type in all cases: cell-based
[1] = system: HCC1937 cells corrected with wild-type BRCA1 gene (BRCA1+); test: Cell viability assay (PrestoBlue, 72 h), HCC1937+BRCA1; settings: Homo sapiens, estimated from the graphs
Experimental: (§1) Fig 2 BRCA1-deficient HCC1937 breast cancer cell line survival assay. BRCA1-deficient HCC1937 cells corrected with wild-type BRCA1 gene (BRCA1+; closed triangle), and with an empty vector (BRCA1-; closed circle) were examined. For each experiment (Figs 2–4), cell lines were treated with nine concentrations of (A) quinacrine, (B) mitoxantrone, and (C) doxorubicin in 96-well culture plates at 5x10^3 cell/well density. Each treatment point was made in sextuplicate. Treated cells were incubated for 72 hours at 37°C before assessing cell viability using PrestoBlue. Data were normalized to vehicle control. The experiment was repeated three times. Error bars indicate the standard deviation.
(§2) The HCC1937 cell line (a gift from Dr. Simon Powell Memorial Sloan Kettering (MSK), New York) was derived from a mammary gland primary ductal carcinoma at the early onset of a tumor. This TNBC patient carried a germline mutation in BRCA1, resulting in carboxy-terminal truncated protein and loss of the second BRCA1 allele. BRCA1-restored and empty vector cell lines were also obtained by transfection of a vector containing a full-length human BRCA1 cDNA or an empty vector, respectively. The HCC1937 cell lines were cultured as described.
(§3) Cells were seeded 5 x 10^3 cells per well in 96-well plates in a 90 μL volume per well one day before treatment. Cells in 96-well plates were incubated with increasing concentrations of the compound or vehicle control (1% DMSO) for 72 hours. Each treatment plate contained nine concentrations of a compound in sextuplicate. Growth inhibition was determined using PrestoBlue reagent (Life Technologies, #A13261). Fluorescent measurements were taken using a Spectramax M5 plate reader (MDS). To assess cells’ replication in the absence of compounds as a control, six wells on each plate were treated with vehicle to be read in triplicate at the initial treatment day (T0) and at 72-hour read (T100).

[2] = system: BRCA2-deficient PE01 ovarian cancer cells (BRCA2-); test: Cell viability assay (PrestoBlue, 72 h), PE01; settings: Homo sapiens, estimated from the graphs
Experimental: BRCA2-deficient PE01 cell line (a gift from Dr. Toshiyasu Taniguchi, Tokai University, Japan) were derived from an ovarian cancer patient. BRCA2-proficient “revertant” cell line, C4-2 is one of eight clones derived from PE01 that has acquired resistance to both cisplatin and PARPi due to a secondary mutation that restored the BRCA2 function. PE01 and PE01 C4-2 were grown and maintained in DMEM high glucose (Hyclone) supplemented with 10% Fetal Bovine Serum (FBS, Invitrogen).
as §3

[3] = system: T1, RPA:RAD52 PPI in U2OS cells; test: Size exclusion chromatography and co-immunoprecipitation of RAD52 with RPA from treated cells; settings: 3 nM, 24 hours, preliminary experiments
T1 construct: endogenous in cells; host or cells: U2OS
Experimental: (A) RAD52 was co-immunoprecipitated with RPA in the fractions 5, 8, and 10 in the control experiment. The elution positions of the molecular weight standards, thyroglobulin (669 kDa), apoferritin (443 kDa), beta-amylase (200 kDa), and bovine serum albumin (66 kDa), are indicated below the western blot.
U2OS cells (10^6 cells) were seeded in a 100 mm dish and grown overnight. The cells were treated with the indicated concentrations of mitoxantrone (MTX) for 24 hours. The cell lysate was prepared in 100 μl of lysis buffer (PBS with 0.5% NP40, 0.5% Triton X100, 1 mM DTT, protease and phosphatase inhibitors, and 10% glycerol). After mixing with 100 μl cold PBS, the lysate was incubated with 100 μl of DEAE sepharose (GE Life Sciences) for 2 hours at 4°C with rotation. An unbound fraction from DEAE sepharose (~200 μl) was diluted with 200 μl of PBS and half of the mixture was fractionated with Superdex200 (GE Life Sciences) using PBS as elution buffer. Each fraction was incubated with anti-RPA (p32) antibody conjugated with biotin (NeoMarkers, MS-691-B0) at 4°C overnight, then incubated with Streptavidin-magnetic beads (Promega #Z5481) for one hour at 4°C with rotation. […] RAD52 and RPA (p32) were detected by western blotting with anti-RAD52 antibody (LS-C42570, LSBio) and anti-RPA2 antibody (A300-244A, Bethyl Laboratories), respectively.

[4] = system: BRCA1-deficient HCC1937 breast cancer cells (empty vector, BRCA1-); test: Cell viability assay (PrestoBlue, 72 h), HCC1937 with empty vector; settings: Homo sapiens, estimated from the graphs
Experimental: as §1, §2, §3

For `O=C1c2c(O)ccc(O)c2C(=O)c2c(NCCNCCO)ccc(NCCNCCO)c21` [Mitoxantrone, mitoxantrone], the EC50 [1] was > 5000 nM, the EC50 [2] was 100 nM and the “Effect on RPA:RAD52 PPI in cells (co-immunoprecipitation of RAD52 with RPA)” value [3] was “disrupts the RPA:RAD52 PPI in cells”. For the same compound, the EC50 [4] was 800 nM.
